# Biological target: T1, human H4 receptor (Homo sapiens, UniProt Q9H3N8)
# T1 construct: expressed in transfected cells
# Assay: Binding Assay on Recombinant Human Histamine H4 Receptor
# Conditions: Table 2; [3H] histamine competition binding, membranes of SK-N-MC cells transfected with human H4 receptor; average of results
# Method in brief: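 Radioligand binding used membranes from SK-N-MC cells stably or transiently expressing human H4, prepared in 50 mM Tris/5 mM EDTA. Nonspecific binding was defined with 100 μM histamine. Bound radioactivity was counted after filtration on PEI-treated GF/C filters, and ">" values are the highest concentration tested.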
# T1 sequence (Q9H3N8 whole entry): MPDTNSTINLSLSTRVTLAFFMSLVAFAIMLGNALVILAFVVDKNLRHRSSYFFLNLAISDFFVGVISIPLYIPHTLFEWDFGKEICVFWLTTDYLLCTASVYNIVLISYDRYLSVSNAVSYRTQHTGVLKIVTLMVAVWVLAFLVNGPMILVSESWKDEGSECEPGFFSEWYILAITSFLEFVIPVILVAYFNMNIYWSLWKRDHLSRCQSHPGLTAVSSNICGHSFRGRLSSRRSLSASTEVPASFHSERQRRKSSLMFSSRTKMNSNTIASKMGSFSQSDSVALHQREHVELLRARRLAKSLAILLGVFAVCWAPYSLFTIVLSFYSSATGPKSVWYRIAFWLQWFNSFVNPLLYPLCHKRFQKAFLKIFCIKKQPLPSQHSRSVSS
row,SMILES,Ki
1,"NCCNc1cc(C2Cc3ccccc3C2)nc(N)n1 [Example 168, N^4-(2-Amino-ethyl)-6-indan-2-yl-pyrimidine-2,4-diamine]",46 nM
2,"CN[C@@H]1CCN(c2cc(C3Cc4ccccc4O3)nc(N)n2)C1 (stereo partly drawn) [Example 169, (R)-4-(2,3-Dihydro-benzofuran-2-yl)-6-(3-methylamino-pyrrolidin-1-yl)-pyrimidin-2-ylamine]",396 nM
3,"CC1(c2cc(N3C[C@H]4CNC[C@H]4C3)nc(N)n2)CCOCC1 [Example 170, 4-(cis-Hexahydro-pyrrolo[3,4-c]pyrrol-2-yl)-6-(4-methyl-tetrahydro-pyran-4-yl)-pyrimidin-2-ylamine]",5890 nM
4,"Nc1nc(C2Cc3ccccc3O2)cc(N2CCNCC2)n1 (stereo not drawn) [Example 171, 4-(2,3-Dihydro-benzofuran-2-yl)-6-piperazin-1-yl-pyrimidin-2-ylamine]",106 nM
5,"Nc1nc(C2Cc3ccccc3O2)cc(N2CC(N)C2)n1 (stereo not drawn) [Example 172, 4-(3-Amino-azetidin-1-yl)-6-(2,3-dihydro-benzofuran-2-yl)-pyrimidin-2-ylamine]",932 nM
6,"Nc1nc(C2Cc3ccccc3C2)cc(N2C[C@H]3CNC[C@H]3C2)n1 [Example 173, 4-(cis-Hexahydro-pyrrolo[3,4-c]pyrrol-2-yl)-6-indan-2-yl-pyrimidin-2-ylamine]",2070 nM
7,"CC1(c2cc(N3CC[C@@H](N)C3)nc(N)n2)CCOCC1 [Example 174, (R)-4-(3-Amino-pyrrolidin-1-yl)-6-(4-methyl-tetrahydro-pyran-4-yl)-pyrimidin-2-ylamine]",138 nM
8,"Nc1nc(C2CCOCC2)cc(N2CC[C@@H](N)C2)n1 [Example 175, (R)-4-(3-Amino-pyrrolidin-1-yl)-6-(tetrahydro-pyran-4-yl)-pyrimidin-2-ylamine]",85 nM
9,"NCCNc1cc(C2CCOCC2)nc(N)n1 [Example 176, N^4-(2-Amino-ethyl)-6-(tetrahydro-pyran-4-yl)-pyrimidine-2,4-diamine]",335 nM
10,"CN(CCN)c1cc(C2CCOCC2)nc(N)n1 [Example 177, N^4-(2-Amino-ethyl)-N^4-methyl-6-(tetrahydro-pyran-4-yl)-pyrimidine-2,4-diamine]",1030 nM
11,"Nc1nc(CCc2ccccc2)cc(N2CC[C@@H](N)C2)n1 [Example 178, (R)-4-(3-Amino-pyrrolidin-1-yl)-6-phenethyl-pyrimidin-2-ylamine]",9 nM
12,"CN1CCN(c2cc(CCc3ccccc3)nc(N)n2)CC1 [Example 179, 4-(4-Methyl-piperazin-1-yl)-6-phenethyl-pyrimidin-2-ylamine]",6 nM
13,"CN[C@@H]1CCN(c2cc(CCc3ccccc3)nc(N)n2)C1 [Example 180, (R)-4-(3-Methylamino-pyrrolidin-1-yl)-6-phenethyl-pyrimidin-2-ylamine]",8 nM
14,"CN1CCN(c2cc(CCC(F)(F)F)nc(N)n2)CC1 [Example 181, 4-(4-Methyl-piperazin-1-yl)-6-(3,3,3-trifluoro-propyl)-pyrimidin-2-ylamine]",8 nM
15,"Nc1nc(CCC(F)(F)F)cc(N2CCNCC2)n1 [Example 182, 4-piperazin-1-yl-6-(3,3,3-trifluoro-propyl)-pyrimidin-2-ylamine]",20 nM
16,"CN[C@@H]1CCN(c2cc(CCC(F)(F)F)nc(N)n2)C1 [Example 183, (R)-4-(3-Methylamino-pyrrolidin-1-yl)-6-(3,3,3-trifluoro-propyl)-pyrimidin-2-ylamine]",16 nM
17,"Nc1nc(CCC(F)(F)F)cc(N2CC[C@@H](N)C2)n1 [Example 184, (R)-4-(3-Amino-pyrrolidin-1-yl)-6-(3,3,3-trifluoro-propyl)-pyrimidin-2-ylamine]",13 nM
18,"COc1c(C2CCCC2)nc(N)nc1N1CCN(C)CC1 [Example 185, 4-Cyclopentyl-5-methoxy-6-(4-methyl-piperazin-1-yl)-pyrimidin-2-ylamine]",300 nM
19,"COc1c(C2CCCC2)nc(N)nc1N1CCNCC1 [Example 186, 4-Cyclopentyl-5-methoxy-6-piperazin-1-yl-pyrimidin-2-ylamine]",213 nM
20,"CN[C@@H]1CCN(c2nc(N)nc(C3CCCC3)c2OC)C1 [Example 187, (R)-4-Cyclopentyl-5-methoxy-6-(3-methylamino-pyrrolidin-1-yl)-pyrimidin-2-ylamine]",10 nM
21,"COc1c(C2CCCC2)nc(N)nc1N1C[C@H]2CCCN[C@H]2C1 [Example 188, (R,R)-4-Cyclopentyl-5-methoxy-6-(octahydro-pyrrolo[3,4-b]pyridin-6-yl)-pyrimidin-2-ylamine]",18 nM
22,"CN(CCN)c1cc(C2CCOC2)nc(N)n1 (stereo not drawn) [Example 189, N^4-(2-Amino-ethyl)-N^4-methyl-6-(tetrahydro-furan-3-yl)-pyrimidine-2,4-diamine]",6 nM
23,"Nc1nc(C2CCOC2)cc(N2CC3CCCNC3C2)n1 (stereo not drawn) [Example 190, 4-(cis-Octahydro-pyrrolo[3,4-b]pyridin-6-yl)-6-(tetrahydro-furan-3-yl)-pyrimidin-2-ylamine]",11 nM
24,"CN[C@@H]1CCN(c2cc(C3CCOC3)nc(N)n2)C1 (stereo partly drawn) [Example 191, (R)-4-(3-Methylamino-pyrrolidin-1-yl)-6-(tetrahydro-furan-3-yl)-pyrimidin-2-ylamine]",12 nM

row,SMILES,Ki
1,"Nc1nc(C2CCOC2)cc(N2CCCNCC2)n1 (stereo not drawn) [Example 192, 4-[1,4]-Diazepan-1-yl-6-(tetrahydro-furan-3-yl)-pyrimidin-2-ylamine]",17 nM
2,"NCCNc1cc(C2CCOC2)nc(N)n1 (stereo not drawn) [Example 195, N^4-(2-Amino-ethyl)-6-(tetrahydro-furan-3-yl)-pyrimidine-2,4-diamine]",59 nM
3,"NCCCNc1cc(C2CCOC2)nc(N)n1 (stereo not drawn) [Example 196, N^4-(3-Amino-propyl)-6-(tetrahydro-furan-3-yl)-pyrimidine-2,4-diamine]",203 nM
4,"CNCCN(C)c1cc(C2CCOC2)nc(N)n1 (stereo not drawn) [Example 197, N^4-Methyl-N^4-(2-methylamino-ethyl)-6-(tetrahydro-furan-3-yl)-pyrimidine-2,4-diamine]",204 nM
5,"CNCCNc1cc(C2CCOC2)nc(N)n1 (stereo not drawn) [Example 198, N^4-(2-Methylamino-ethyl)-6-(tetrahydro-furan-3-yl)-pyrimidine-2,4-diamine]",2450 nM
6,"Cc1nc(N)nc(N2CCN(C)CC2)c1F [Example 199, 5-Fluoro-4-methyl-6-(4-methyl-piperazin-1-yl)-pyrimidin-2-ylamine]",69 nM
7,"Cc1nc(N)nc(N2CC3CCCNC3C2)c1F (stereo not drawn) [Example 200, 5-Fluoro-4-methyl-6-(octahydro-pyrrolo[3,4-b]pyridin-6-yl)-pyrimidin-2-ylamine]",235 nM
8,"Cc1nc(N)nc(N2CCNCC2)c1F [Example 201, 5-Fluoro-4-methyl-6-piperazin-1-yl-pyrimidin-2-ylamine]",391 nM
9,"CN[C@@H]1CCN(c2nc(N)nc(C)c2F)C1 [Example 202, (R)-5-Fluoro-4-methyl-6-(3-methylamino-pyrrolidin-1-yl)-pyrimidin-2-ylamine]",515 nM
10,"Cc1nc(N)nc(N(C)CCN)c1F [Example 203, N^4-(2-Amino-ethyl)-5-fluoro-6,N^4-dimethyl-pyrimidine-2,4-diamine]",4230 nM
11,"Nc1nc(Cc2ccncc2)cc(N2CCNCC2)n1 [Example 204, 4-piperazin-1-yl-6-pyridin-4-ylmethyl-pyrimidin-2-ylamine]",45 nM
12,"CN[C@@H]1CCN(c2cc(Cc3ccncc3)nc(N)n2)C1 [Example 205, (R)-4-(3-Methylamino-pyrrolidin-1-yl)-6-pyridin-4-ylmethyl-pyrimidin-2-ylamine]",230 nM
13,"CN1CCN(c2cc(Cc3ccncc3)nc(N)n2)CC1 [Example 206, 4-(4-Methyl-piperazin-1-yl)-6-pyridin-4-ylmethyl-pyrimidin-2-ylamine]",81 nM
14,"CN1CCN(c2cc(Cc3ccsc3)nc(N)n2)CC1 [Example 207, 4-(4-Methyl-piperazin-1-yl)-6-thiophen-3-ylmethyl-pyrimidin-2-ylamine]",2 nM
15,"CN[C@@H]1CCN(c2cc(Cc3ccsc3)nc(N)n2)C1 [Example 208, (R)-4-(3-Methylamino-pyrrolidin-1-yl)-6-thiophen-3-ylmethyl-pyrimidin-2-ylamine]",8 nM
16,"Nc1nc(Cc2ccsc2)cc(N2CCNCC2)n1 [Example 209, 4-piperazin-1-yl-6-thiophen-3-ylmethyl-pyrimidin-2-ylamine]",2 nM
17,"Nc1nc(Cc2ccsc2)cc(N2CC[C@@H](N)C2)n1 [Example 210, (R)-4-(3-Amino-pyrrolidin-1-yl)-6-thiophen-3-ylmethyl-pyrimidin-2-ylamine]",12 nM
18,"Nc1nc(Cc2ccsc2)cc(N2CC3CCCNC3C2)n1 (stereo not drawn) [Example 211, 4-(cis-Octahydro-pyrrolo[3,4-b]pyridin-6-yl)-6-thiophen-3-ylmethyl-pyrimidin-2-ylamine]",4 nM
19,"NCCNc1cc(Cc2ccsc2)nc(N)n1 [Example 212, N^4-(2-Amino-ethyl)-6-thiophen-3-ylmethyl-pyrimidine-2,4-diamine]",12 nM
20,"CN1CCN(c2cc(Cc3cccs3)nc(N)n2)CC1 [Example 213, 4-(4-Methyl-piperazin-1-yl)-6-thiophen-2-ylmethyl-pyrimidin-2-ylamine]",4 nM
21,"CN[C@@H]1CCN(c2cc(Cc3cccs3)nc(N)n2)C1 [Example 214, (R)-4-(3-Methylamino-pyrrolidin-1-yl)-6-thiophen-2-ylmethyl-pyrimidin-2-ylamine]",19 nM
22,"Nc1nc(Cc2cccs2)cc(N2CCNCC2)n1 [Example 215, 4-piperazin-1-yl-6-thiophen-2-ylmethyl-pyrimidin-2-ylamine]",6 nM
23,"Nc1nc(Cc2cccs2)cc(N2CC[C@@H](N)C2)n1 [Example 216, (R)-4-(3-Amino-pyrrolidin-1-yl)-6-thiophen-2-ylmethyl-pyrimidin-2-ylamine]",32 nM
24,"Nc1nc(Cc2cccs2)cc(N2CC3CCCNC3C2)n1 (stereo not drawn) [Example 217, 4-(cis-Octahydro-pyrrolo[3,4-b]pyridin-6-yl)-6-thiophen-2-ylmethyl-pyrimidin-2-ylamine]",9 nM

# From patent publication US8716475B2, “2-aminopyrimidine modulators of the histamine H4 receptor” (Janssen Pharmaceutica NV, priority 2007, dated 2014)
